The test system of one series is mouse. As to conditions: comparison value for BHA; cited from earlier work.
Series [1] is described as follows: Test I: peroxide value of refined lard by the active oxygen method (AOM). Particulars: 0.02% by weight in lard, 97.5° C. The protocol:
(§1) The above-obtained compound was tested for its anti-oxidative effects in terms of peroxide value by the active oxygen method (AOM) and also in terms of oxygen absorption. […] Each of the tests I and II are described below together with the results thereof.
Varied amounts of the compound were admixed with and uniformly dissolved in portions of refined lard each weighing 20 g to prepare test samples. Each test sample was kept in an oil bath of thermostat at 97.5°±0.5° C., while air was forcedly blown into the lard at a rate of […].
The thus treated samples of the lard were analyzed for the peroxide value (POV for brevity) periodically or at certain intervals, in accordance with the modified Lea's method as described in "Yukagaku" (Journal of Japan Oil Chemist Society), vol. 19(15), p. 340, 1970.
In comparison, similar experiments were undertaken for the samples of the same lard with addition of BHA instead of the compound of the present invention or without addition of any anti-oxidant.

Series [2] is described as follows: Test II: oxygen absorption in corn salad oil, Warburg's manometer. As to conditions: 0.02% by weight in corn salad oil, 60° C. As to the method:
as §1
The compound of the present invention was determined for the rate of oxygen absorption in a corn salad oil to which 0.02% by weight of the compound had been added. For the purpose, 2 grams of the corn salad oil sample was taken in the receptacle of Warburg's manometer with thermostat at 60°±0.1° C., which was shaken with 110 vibrations per minute in a vibration amplitude of 60 mm. The rate of oxygen absorption was determined by reading the manometer according to the procedure set forth in "Jikken Kagaku Koza" (Lectures in Experimental Chemistry), vol. 24, p. 85, 1958, Maruzen Publishing, Japan. In this testing, the receptacle was totally wrapped with an aluminum foil to prevent the photooxidation of the oil, and mercury was used as the manometer fluid in place of Brodie's solution in order to minimize any possible influence caused by fluctuations in the atmospheric pressure.
Further, in comparison, a similar test was conducted using the same corn salad oil with addition of 0.02% by weight of BHA or without addition of any anti-oxidant.

Turning to `COc1ccc(O)c(C(C)(C)C)c1` [BHA, butylhydroxyanisole, reference compound], the LD50 value with mouse is 1,100 mg/kg. Also, the Peroxide value in series [1] (8 hours) is 2.8 meq./kg; in series [1] (16 hours), 5.1 meq./kg; in series [1] (24 hours), 7.9 meq./kg; in series [1] (32 hours), 13.8 meq./kg; in series [1] (40 hours), 28.9 meq./kg; in series [1] (48 hours), 33.1 meq./kg. In addition, the Peroxide value came out at 43.1 meq./kg in series [1] (56 hours), 97.3 meq./kg in series [1] (64 hours) and 296.7 meq./kg in series [1] (72 hours). The Oxygen absorption came to 57.6 μ1/g in series [2] (85 hours); 116.2 μ1/g in series [2] (140 hours); 174.8 μ1/g in series [2] (166 hours); 219.0 μ1/g in series [2] (199 hours); 478.9 μ1/g in series [2] (263 hours); 697.8 μ1/g in series [2] (288 hours). The figures for the Oxygen absorption in series [2] (320 hours) and in series [2] (343 hours) were 922.9 μ1/g and 1124.2 μ1/g, respectively.

Source of the values: patent US4195101A, “2',6'-Dihydroxy-9-(2,5-dihydroxyphenyl)octylphenone and its use as an anti-oxidant” (The Lion Dentifrice Co. Ltd., priority 1977, dated 1980).
